Type in all cases: cell-based
Assay [1] relates to human liver cancer cell line HepG-2. In words: Cell inhibitory activity (CCK-8 anti-proliferative) on HepG-2. The settings on record: HepG2, HepG-2 cells, 72 hours with drug, CCK-8, 450 nm. The protocol: (§1) Cell lines: human promyelocytic leukemia cell line HL-60, human acute leukemia mononuclear macrophage cell line THP-1, human liver cancer cell line HepG-2
(§2) Test Method for Cell Inhibitory Activity
(§3) Cells are routinely cultured in an incubator at 37° C. and 5% CO2 saturated humidity. The culture medium is RPMI1640 cell culture medium containing 10% of heat-inactivated fetal bovine serum, 100 U/mL of penicillin and 100 U/mL of streptomycin. The culture medium is replaced after 48 hours. After the cells adhere to the wall, they are digested with 0.25% trypsin and passage.
(§4) A vial of cells in the logarithmic growth phase and in good condition is digested with a digestion solution (0.125% trypsin+0.01% EDTA); cell count is 2 to 4×10^4 cell/mL; a cell suspension is made and inoculated on a 96-well plate, 100 μL/well, and cultured in a constant temperature CO2 incubator for 24 hours. The medium is replaced; the test drug is added, 100 μL/well, and cultured for 72 hours. CCK-8 is added to a 96-well plate, 50 μL/well, and incubated in an incubator for 4 hours. The supernatant is aspirated; DMSO is added, 200 μL/well, and shaken on a plate shaker for 10 minutes.

The test system of assay [2] is human promyelocytic leukemia cell line HL-60. In words: Cell inhibitory activity (CCK-8 anti-proliferative) on HL-60. The settings on record: HL-60 cells, 72 hours with drug, CCK-8, 450 nm. The protocol: as §1, §2, §3, §4
Assay [3] relates to human acute leukemia mononuclear macrophage cell line THP-1. In words: Cell inhibitory activity (CCK-8 anti-proliferative) on THP-1. The following applies: THP-1 cells, 72 hours with drug, CCK-8, 450 nm. On the procedure:
as §1, §2, §3, §4

In the case of `CC(C)NC(=O)C1OC(Oc2cc3oc(-c4ccc(OCc5ccccc5)cc4)cc(=O)c3c(O)c2OCc2ccccc2)C(O)C(O)C1O` (stereo not drawn) [Example 17], the IC50 amounted to 39.5 ± 1.03 µM in assay [1], 54.1 ± 1.21 µM in assay [2] and 37.3 ± 0.93 µM in assay [3].
On to `COc1ccc(-c2cc(=O)c3c(O)c(OC)c(OC4OC(C(=O)Nc5ccccc5OC)C(O)C(O)C4O)cc3o2)cc1` (stereo not drawn) [Example 29], for which the IC50 in assay [1] is 29 ± 2.26 µM; in assay [2] it was 53.2 ± 3.47 µM; in assay [3] it was 19.7 ± 0.89 µM.
On the same counts, the results for `Cc1ccc(NC(=O)C2OC(Oc3cc4oc(-c5ccc(OCc6ccccc6)cc5)cc(=O)c4c(O)c3OCc3ccccc3)C(O)C(O)C2O)cc1` (stereo not drawn) [Example 10] are 7.23 ± 0.31 µM, 13 ± 0.28 µM and 5.75 ± 0.36 µM.
For the compound `COc1ccc(-c2cc(=O)c3c(O)c(OC)c(OC4OC(C(=O)Nc5ccccc5C)C(O)C(O)C4O)cc3o2)cc1` (stereo not drawn) [Example 24], the IC50 came to 24.3 ± 0.92 µM in assay [1], 64.2 ± 3.41 µM in assay [2] and 27.8 ± 1.12 µM in assay [3].
For `COc1ccc(NC(=O)C2OC(Oc3cc4oc(-c5ccc(OC)cc5)cc(=O)c4c(O)c3OC)C(O)C(O)C2O)cc1` (stereo not drawn) [Example 28], the IC50 in assay [1] turned out to be 39.5 ± 1.03 µM; in assay [2], 47.2 ± 2.71 µM; in assay [3], 53.8 ± 3.58 µM.
As for `O=C(O)[C@H]1O[C@@H](Oc2cc3oc(-c4ccc(O)cc4)cc(=O)c3c(O)c2O)[C@H](O)[C@@H](O)[C@@H]1O` [Scutellarin], the IC50 in assay [1] is 56.1 ± 1.23 µM; in assay [2] it was 22.7 ± 1.97 µM; in assay [3], 48.5 ± 2.21 µM.
The matching figures for `Cc1cccc(NC(=O)C2OC(Oc3cc4oc(-c5ccc(OCc6ccccc6)cc5)cc(=O)c4c(O)c3OCc3ccccc3)C(O)C(O)C2O)c1` (stereo not drawn) [Example 8]: 12 ± 3.52 µM, 11.8 ± 0.34 µM and 16.1 ± 0.57 µM.
The matching figures for `COc1ccc(-c2cc(=O)c3c(O)c(OC)c(OC4OC(C(=O)NC(C)C)C(O)C(O)C4O)cc3o2)cc1` (stereo not drawn) [Example 32]: 26.6 ± 2.19 µM, 28.2 ± 1.19 µM and 19 ± 0.36 µM.
In the case of `O=C(Nc1ccc(Cl)cc1)C1OC(Oc2cc3oc(-c4ccc(OCc5ccccc5)cc4)cc(=O)c3c(O)c2OCc2ccccc2)C(O)C(O)C1O` (stereo not drawn) [Example 6], the 50% inhibitory concentration (IC50) in assay [1] was 51.6 ± 0.97 µM; in assay [2], 75.88 ± 0.31 µM; in assay [3], 81.36 ± 0.35 µM.
The matching figures for `O=C(Nc1ccc(O)cc1)C1OC(Oc2cc3oc(-c4ccc(OCc5ccccc5)cc4)cc(=O)c3c(O)c2OCc2ccccc2)C(O)C(O)C1O` (stereo not drawn) [Example 12]: 36.1 ± 0.67 µM, 58.9 ± 0.97 µM and 33.9 ± 0.78 µM.
In the case of `COc1ccc(-c2cc(=O)c3c(O)c(OC)c(OC4OC(C(=O)Nc5cccc(Cl)c5)C(O)C(O)C4O)cc3o2)cc1` (stereo not drawn) [Example 22], the IC50 in assay [1] was 5.42 ± 0.53 µM; in assay [2], 3.37 ± 0.22 µM; in assay [3] it was 7.02 ± 0.27 µM.
`COc1ccc(-c2cc(=O)c3c(O)c(OC)c(OC4OC(C(=O)Nc5ccc(C)cc5)C(O)C(O)C4O)cc3o2)cc1` (stereo not drawn) [Example 25]: the IC50 turned out to be 39.7 ± 2.31 µM in assay [1], 61.7 ± 2.97 µM in assay [2] and 34.4 ± 1.89 µM in assay [3].
As to `COc1ccc(NC(=O)C2OC(Oc3cc4oc(-c5ccc(OCc6ccccc6)cc5)cc(=O)c4c(O)c3OCc3ccccc3)C(O)C(O)C2O)cc1` (stereo not drawn) [Example 13], the values for the IC50 in assay [1], in assay [2] and in assay [3] were 23.9 ± 0.88 µM, 20.9 ± 0.46 µM and 26.3 ± 0.94 µM, respectively.
`CCCNC(=O)C1OC(Oc2cc3oc(-c4ccc(OCc5ccccc5)cc4)cc(=O)c3c(O)c2OCc2ccccc2)C(O)C(O)C1O` (stereo not drawn) [Example 16]: the half-inhibitory concentration (IC50) in assay [1] turned out to be 21 ± 0.81 µM; in assay [2], 30.6 ± 0.57 µM; in assay [3], 22.4 ± 0.38 µM.
For the compound `COc1ccc(-c2cc(=O)c3c(O)c(OC)c(OC4OC(C(=O)Nc5cccc(OC)c5)C(O)C(O)C4O)cc3o2)cc1` (stereo not drawn) [Example 30], the IC50 was 15 ± 0.85 µM in assay [1], 2.95 ± 0.31 µM in assay [2] and 21 ± 0.49 µM in assay [3].
As to `COc1ccc(-c2cc(=O)c3c(O)c(OC)c(OC4OC(C(=O)Nc5ccccc5O)C(O)C(O)C4O)cc3o2)cc1` (stereo not drawn) [Example 26], the IC50 was found to be 32.1 ± 2.03 µM in assay [1], 15.4 ± 0.88 µM in assay [2] and 40.1 ± 1.57 µM in assay [3].
As for `CCCCCCNC(=O)C1OC(Oc2cc3oc(-c4ccc(OC)cc4)cc(=O)c3c(O)c2OC)C(O)C(O)C1O` (stereo not drawn) [Example 33], the IC50 in assay [1] is 3.69 ± 0.63 µM; in assay [2], 4.21 ± 0.15 µM; in assay [3] it was 5.76 ± 0.33 µM.
For `COc1cccc(NC(=O)C2OC(Oc3cc4oc(-c5ccc(OCc6ccccc6)cc5)cc(=O)c4c(O)c3OCc3ccccc3)C(O)C(O)C2O)c1` (stereo not drawn) [Example 15], the IC50 is 29.2 ± 0.77 µM in assay [1], 4.28 ± 0.31 µM in assay [2] and 31.62 ± 0.25 µM in assay [3].
On the same counts, the results for `COc1ccc(-c2cc(=O)c3c(O)c(OC)c(OC4OC(C(=O)Nc5ccc(Cl)cc5)C(O)C(O)C4O)cc3o2)cc1` (stereo not drawn) [Example 21] are 3.21 ± 0.75 µM, 4.86 ± 0.21 µM and 4.47 ± 0.35 µM.
In the case of `COc1ccc(-c2cc(=O)c3c(O)c(OC)c(OC4OC(C(=O)Nc5cccc(C)c5)C(O)C(O)C4O)cc3o2)cc1` (stereo not drawn) [Example 23], the IC50 in assay [1] was 3.15 ± 0.46 µM; in assay [2], 5.49 ± 0.16 µM; in assay [3], 4.62 ± 0.2 µM.
For the compound `COc1ccc(-c2cc(=O)c3c(O)c(OC)c(OC4OC(C(=O)Nc5ccc(O)cc5)C(O)C(O)C4O)cc3o2)cc1` (stereo not drawn) [Example 27], the IC50 was 51.2 ± 0.87 µM in assay [1], 59.3 ± 2.18 µM in assay [2] and 89.03 ± 0.59 µM in assay [3].
Consider `CCCCCCNC(=O)C1OC(Oc2cc3oc(-c4ccc(OCc5ccccc5)cc4)cc(=O)c3c(O)c2OCc2ccccc2)C(O)C(O)C1O` (stereo not drawn) [Example 18], for which the results for the IC50 in assay [1], in assay [2] and in assay [3] were 46.2 ± 2.03 µM, 59.1 ± 0.91 µM and 35.8 ± 1.24 µM, respectively.
For the compound `Cc1ccccc1NC(=O)C1OC(Oc2cc3oc(-c4ccc(OCc5ccccc5)cc4)cc(=O)c3c(O)c2OCc2ccccc2)C(O)C(O)C1O` (stereo not drawn) [Example 9], the figures for the IC50 in assay [1], in assay [2] and in assay [3] were 19.4 ± 1.11 µM, 27.53 ± 0.15 µM and 26.8 ± 0.32 µM, respectively.
Turning to `O=C(Nc1ccccc1)C1OC(Oc2cc3oc(-c4ccc(OCc5ccccc5)cc4)cc(=O)c3c(O)c2OCc2ccccc2)C(O)C(O)C1O` (stereo not drawn) [Example 5], the IC50 in assay [1] came to 45.7 ± 2.15 µM; in assay [2], 20 ± 0.19 µM; in assay [3], 35.37 ± 0.23 µM.
As for `COc1ccc(-c2cc(=O)c3c(O)c(OC)c(OC4OC(C(=O)Nc5ccccc5)C(O)C(O)C4O)cc3o2)cc1` (stereo not drawn) [Example 20], the figures for the IC50 in assay [1], in assay [2] and in assay [3] were 16.8 ± 0.19 µM, 85.23 ± 0.75 µM and 63.12 ± 0.46 µM, respectively.
In the case of `CCCNC(=O)C1OC(Oc2cc3oc(-c4ccc(OC)cc4)cc(=O)c3c(O)c2OC)C(O)C(O)C1O` (stereo not drawn) [Example 31], the results for the IC50 in assay [1], in assay [2] and in assay [3] were 33 ± 1.13 µM, 21.8 ± 0.99 µM and 41.6 ± 1.37 µM, respectively.
Consider `O=C(Nc1cccc(Cl)c1)C1OC(Oc2cc3oc(-c4ccc(OCc5ccccc5)cc4)cc(=O)c3c(O)c2OCc2ccccc2)C(O)C(O)C1O` (stereo not drawn) [Example 7], for which the figures for the half-inhibitory concentration (IC50) in assay [1], in assay [2] and in assay [3] were 11.2 ± 1.07 µM, 15.43 ± 0.11 µM and 13.67 ± 0.13 µM, respectively.
The matching figures for `O=C(NC1CCCCC1)C1OC(Oc2cc3oc(-c4ccc(OCc5ccccc5)cc4)cc(=O)c3c(O)c2OCc2ccccc2)C(O)C(O)C1O` (stereo not drawn) [Example 19]: 17.6 ± 1.66 µM, 58.8 ± 2.31 µM and 16.8 ± 0.19 µM.
For the compound `O=C(Nc1ccccc1O)C1OC(Oc2cc3oc(-c4ccc(OCc5ccccc5)cc4)cc(=O)c3c(O)c2OCc2ccccc2)C(O)C(O)C1O` (stereo not drawn) [Example 11], the IC50 in assay [1] came out at 5.11 ± 0.43 µM; in assay [2] it was 2.91 ± 0.69 µM; in assay [3], 6.11 ± 0.97 µM.
For `COc1ccccc1NC(=O)C1OC(Oc2cc3oc(-c4ccc(OCc5ccccc5)cc4)cc(=O)c3c(O)c2OCc2ccccc2)C(O)C(O)C1O` (stereo not drawn) [Example 14], the figures for the IC50 in assay [1], in assay [2] and in assay [3] were 6.23 ± 2.03 µM, 1.7 ± 0.11 µM and 12.5 ± 0.35 µM, respectively.
Consider `COc1ccc(-c2cc(=O)c3c(O)c(OC)c(OC4OC(C(=O)NC5CCCCC5)C(O)C(O)C4O)cc3o2)cc1` (stereo not drawn) [Example 34], for which the IC50 is 11.2 ± 0.72 µM in assay [1], 28.7 ± 0.54 µM in assay [2] and 19.1 ± 0.78 µM in assay [3].

For the origin of these results see patent publication US20220002332A1, “SCUTELLARIN AMIDE DERIVATIVES, AND PREPARATION METHODS AND USES THEREOF” (HEILONGJIANG BAYI AGRICULTURAL UNIVERSITY, priority 2020, published 2022).
